# Literature values as cited in US12478679B2, “Pharmaceutical carrier for active substances and a pharmaceutical composition containing said carrier” (BIOTTS S A, priority 2019, dated 2025).
# Read-outs that look alike come from different tables or passages of the source.
# What was measured:
# [1] = rats
# [2] = mice
structure (smiles),measurement,setting,value
COc1cc(/C=C/C(=O)CC(=O)/C=C/c2ccc(O)c(OC)c2)ccc1O [curcumin],"ED50, average effective dose in the carrageenan test",[1],48 mg/kg
same,"ED50, average effective dose in the carrageenan test",[2]; first series,100.2 mg/kg
same,ED50,[2]; series of turmeric extracts and curcumin alone,8.7 mg/kg
